Tested on: corn immature embryos
Assay: Immature embryo germination inhibition bioassay (kill curves)
Format: cell-based, Zea mays
Details: immature embryos 2 mm on germination medium, 27° C. in light; shoot and primary root length 7 days after dissection
Experimental: In order to establish effective concentrations of D-Serine and D-Alanine on inhibiting growth of tissue cultured corn cells, a bioassay system using immature embryos was applied. Immature embryos 2 mm in length were dissected onto germination medium with the selection agents, and incubated at 27° C. in light. The lengths of the shoot and primary root of a germinated seedling were measured 7 days after embryo dissection (FIGS. 1A and 1B).

SMILES: N[C@H](CO)C(=O)O [D-Serine]
- concentration above which significant/pronounced growth inhibition occurs: higher than 9 mM

SMILES: C[C@@H](N)C(=O)O [D-Alanine]
- concentration above which significant/pronounced growth inhibition occurs: higher than 2 mM
